Reference: PMC12254266, “Multicolored sequential resonance energy transfer for detection of simultaneous ligand binding at G protein-coupled receptors” (Nature Communications, 2025)
“And” between values parts separate entries of the source, which are not always exact repeats. Identical values can stand only once.

How the values were obtained:
FFA1-Nluc [1] = target: T1, FFA1-Nluc (Homo sapiens, UniProt O14842); assay: NanoBRET binding (saturation, kinetics) at C terminal Nluc tagged FFA1; set-up: expressed in transfected cells
T1 sequence (O14842 whole entry): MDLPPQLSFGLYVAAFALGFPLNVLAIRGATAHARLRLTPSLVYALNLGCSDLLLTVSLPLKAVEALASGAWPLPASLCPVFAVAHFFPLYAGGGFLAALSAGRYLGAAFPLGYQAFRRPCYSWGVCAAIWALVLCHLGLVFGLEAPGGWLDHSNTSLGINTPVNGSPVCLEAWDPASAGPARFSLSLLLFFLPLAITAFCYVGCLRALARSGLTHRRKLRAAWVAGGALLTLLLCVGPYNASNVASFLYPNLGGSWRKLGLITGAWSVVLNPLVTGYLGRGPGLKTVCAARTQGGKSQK
Procedure: Nluc-FFA1 or FFA1-Nluc Flp-In T-REx 293 cells were plated at 50,000 cells per well in poly-D-lysine coated white 96-well plates. Cells were cultured for 24 h in the plate before medium was replaced with medium containing 100 ng/mL of doxycycline to induce receptor expression. After culturing for a further 24 h, medium was removed, cells were washed with HBSS and incubated in HBSS for 30 min. To start the assay, NanoGlo substrate (Promega, N1110) was added to the cells at a 1:800 final dilution and incubated for 10 min at 37 °C. For endpoint assays, including both saturation and competition binding, test ligands were then added, including both fluorescent and unlabelled competing ligands as indicated, and plates incubated for a further 5 min at 37 °C. NanoBRET was then quantified in a CLARIOstar microplate reader (BMG Labtech) by measuring luminescent emission with the monochrometer set for the Nluc donor at 450–60 nm, and acceptor luminescent emission 540–60 nm (NBD), 600–80 nm (Cy3.5) or 690–100 nm (SulfoCy5), depending on which fluorophore was being tested. The acceptor/donor BRET ratio was then taken as a measure of fluorophore binding. For kinetic on then off NanoBRET experiments plates were washed the same way and substrate was added to the same concentration. However, 10 min after substrate was added plates were inserted into the CLARIOstar microplate reader set to 25 °C to take repeated measurements of luminescent emission for both the donor and the acceptor fluorophore being used. After 5 min of background measurements, the indicated concentration of fluorescent ligand was added using the plate reader injector and luminescent emission was monitored for ~10 min before the reader was paused to manually add a high concentration of appropriate competing ligand to initiate dissociation. The plate was returned to the reader and luminescence measurements were continued for a further 30 min to monitor dissociation of the fluorescent ligand. For kinetic experiments using multiple concentrations of fluorescent ligand, cells were placed in the plate reader immediately after the addition of Nano-Glo substrate and luminescent measurements were taken. After 5 min, the reader was paused to add the indicated concentrations of fluorescent ligand, before measurements were continued. To set non-specific binding for kinetic experiments, the indicated competing ligand was added 5 min before the addition of the fluorescent ligand.

FFA1 = FFA1 (Homo sapiens, UniProt O14842); assay: NanoBiT arrestin-3 recruitment in HEK293T cells; type: cell-based; set-up: expressed in transfected cells; host or cells: HEK293T, transient; details: ± SEM; for EMax (% TUG-905) arrestin-3 recruitment: percentage of the response to 10 μM TUG-905; for pEC50 arrestin-3 recruitment: N=3
Chain of FFA1 (O14842 whole entry, the tested form may be a part): as the sequence (O14842 whole entry) above
Procedure: For arrestin-3 recruitment assays, HEK293T cells were transfected with FFA1 receptor and a bystander NanoBiT split luciferase arrestin-3 recruitment biosensor. Cells were transfected and plated simultaneously in a reverse transfection protocol into a poly-D-lysine coated white 96-well plate. Per well, 60,000 cells were transfected with 5 ng plasmid expressing LgBiT with a N-terminal Lyn11 plasma membrane localisation tag, 5 ng plasmid expressing bovine arrestin-3 fused at its N-terminal to SmBiT tag and 30 ng plasmid expressing the human FFA1 receptor. Total DNA was made up to 100 ng total/well with empty pcDNA3 vector and transfected to cell suspension with 0.6 µg/well PEI. Following transfection cells were cultured for 24 h before use. On the day of assay, cells were washed twice with HBSS and incubated in HBSS for 30 min at 37 °C. NanoGlo substrate was added at a final 1:800 dilution and incubated in the dark for 10 min at 37 °C. […] Raw luminescence values were divided by baseline signal (average of first 5 data points prior to compound addition) and vehicle measurements subtracted from agonist treatment. Area under curves were calculated and concentration response curves plotted.

FFA1-Nluc [2] = target: T1, FFA1-Nluc; assay: DISCo-BRET (endpoint, spectra scan, kinetics) with TUG-2591 and TUG-2597 at C terminal Nluc tagged FFA1; type: binding; set-up: expressed in transfected cells; details: for Specific BRET (690/450): Sup Fig 3Bi
Outline: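 Flp-In T-REx 293 cells expressing Nluc-tagged FFA1 were induced with 100 ng/mL doxycycline for 24 h, then given Nano-Glo (1:800 final). Endpoint and spectral reads were taken 5 min after ligand at 37 °C; kinetics were read at 25 °C with sequential ligand additions. BRET ratios were taken from Nluc, NBD and SulfoCy5 emissions.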

[3] = FFA1-Nluc, 95% confidence interval in parentheses, read-out: Kd, saturation BRET binding
[4] = TUG-2597 […] first, then increasing TUG-2591 (Fig. 6H)
[5] = based on the value calculated in Supplementary Table 4
[6] = TUG-2591 100 nM + TUG-2597 […], displacing ligand T360 10 μM
[7] = TUG-2597 […] after TUG-2591 pre-treatment (Sup. Fig. 10A)
[8] = tracers 1.0 μΜ / 3.16 μΜ, displacing ligand T360 (30 μM)

Cc1cc(OCCCNC(=O)CCCN2\C(=C/C=C/C=C/C3=[N+](C)c4ccc(S(=O)(=O)[O-])cc4C3(C)C)C(C)(C)c3ccccc32)ccc1-c1cccc(COc2ccc(CCC(=O)O)c(F)c2)c1 [TUG-2591]
Kd (FFA1-Nluc [1]; [3]): 23 nM
BMax, saturation BRET binding (FFA1-Nluc [1]; FFA1-Nluc, specific BRET, 95% confidence interval in parentheses): 0.035 (0.032−0.038)
EMax (% TUG-905) arrestin-3 recruitment (FFA1): 91 ± 6%
pEC50 arrestin-3 recruitment (FFA1): 7.5 ± 0.4
Specific BRET (540/450) (FFA1-Nluc [2]; 10 nM TUG-2591, + TUG-2597): 0.2063 and 0.1967 and 0.1514 and 0.1434 and 0.1849 and 0.1798
Kd (FFA1-Nluc [2]; FFA1-Nluc, […] TUG-2597, read-out: Kd, DISCo-BRET saturation SulfoCy5/NBD (Sup Fig 3Biii)): 64 nM
Kd (FFA1-Nluc [2]; FFA1-Nluc, […] TUG-2597, read-out: Kd, DISCo-BRET saturation SulfoCy5/NBD (Sup Fig 3Ciii)): 140 nM
Kd (FFA1-Nluc [2]; FFA1-Nluc, […] TUG-2597, read-out: Kd, DISCo-BRET saturation SulfoCy5/Nluc (Sup Fig 3Bi)): 57 nM
Kd (FFA1-Nluc [2]; FFA1-Nluc, […] TUG-2597, read-out: Kd, DISCo-BRET saturation SulfoCy5/Nluc (Sup Fig 3Ci)): 81 nM
Specific BRET (690/450) (FFA1-Nluc [2]; TUG-2591 56 nM, with TUG-2597): 0.0527 and 0.0499 and 0.0741 and 0.0890 and 0.0785 and 0.0761 and 0.0666 and 0.0608
Specific BRET (690/450) (FFA1-Nluc [2]; TUG-2591 100 nM, with TUG-2597): 0.0715 and 0.0673 and 0.0821 and 0.0713 and 0.0718 and 0.0721 and 0.1131 and 0.1106
Specific BRET (540/450) (FFA1-Nluc [2]; Sup Fig 3Bii, TUG-2591 10 nM, with TUG-2597 + TUG-905): 0.2427 and 0.2316 and 0.2211 and 0.2363 and 0.1842 and 0.1961
Specific BRET (540/450) (FFA1-Nluc [2]; Sup Fig 3Bii, TUG-2591 56 nM, with TUG-2597): 0.1505 and 0.1512 and 0.1284 and 0.1402 and 0.0985 and 0.0926
Specific BRET (540/450) (FFA1-Nluc [2]; Sup Fig 3Bii, TUG-2591 56 nM, with TUG-2597 + TUG-905): 0.1690 and 0.2045 and 0.2352 and 0.2122 and 0.1905 and 0.1776
Specific BRET (540/450) (FFA1-Nluc [2]; Sup Fig 3Bii, TUG-2591 100 nM, with TUG-2597): 0.1528 and 0.1591 and 0.1221 and 0.0973 and 0.0962 and 0.0870
Specific BRET (540/450) (FFA1-Nluc [2]; Sup Fig 3Bii, TUG-2591 100 nM, with TUG-2597 + TUG-905): 0.1931 and 0.1764 and 0.2349 and 0.2150 and 0.1675 and 0.1714
Specific BRET (690/540) (FFA1-Nluc [2]; Sup Fig 3Biii, TUG-2591 56 nM, with TUG-2597): 0.0349 and 0.0333 and 0.0476 and 0.0572 and 0.0548 and 0.0534 and 0.0437 and 0.0392
Specific BRET (690/540) (FFA1-Nluc [2]; Sup Fig 3Biii, TUG-2591 100 nM, with TUG-2597): 0.0480 and 0.0458 and 0.0524 and 0.0450 and 0.0542 and 0.0749 and 0.0751
kOff DISCo-BRET SulfoCy5/NBD (FFA1-Nluc [2]; TUG-2591 100 nM + TUG-2597 […], displacing ligand TUG-905 10 μM): 0.0006 s⁻¹
kOn DISCo-BRET Single Concentration (FFA1-Nluc [2]; TUG-2591 100 nM added after TUG-2597 […]): 20000 M⁻¹ s⁻¹
Kd (FFA1-Nluc [2]; TUG-2591 added after TUG-2597, read-out: Kd DISCo-BRET Single Concentration (kinetic)): 91 nM
kOff DISCo-BRET Multiple Concentration (FFA1-Nluc [2]; [4]): 0.00183 s⁻¹
kOn DISCo-BRET Multiple Concentration (FFA1-Nluc [2]; [4]): 8333.33 M⁻¹ s⁻¹
Kd (FFA1-Nluc [2]; TUG-2597 […] first, then increasing TUG-2591 (Fig. 6H), read-out: Kd DISCo-BRET Multiple Concentration (kinetic)): 220 nM
Specific BRET (690/540) (FFA1-Nluc [2]; [TUG-2591] 100 nM, with TUG-2597): 0.0559 and 0.0537 and 0.05545 and 0.05225 and 0.03465 and 0.04165
kOff DISCo-BRET Single Concentration (FFA1-Nluc [2]; based on the value calculated in the multiple ligand experiment in Fig. 6H): 0.00183 s⁻¹
Kd (FFA1-Nluc [2]; in presence of […] TUG-2597, either construct, read-out: Kd, DISCo-BRET saturation (area under SulfoCy5 / NBD peaks)): 50 to 100 nM
kOff DISCo-BRET SulfoCy5/NBD (FFA1-Nluc [2]; tracers 1.0 μΜ / 3.16 μΜ, displacing ligand TUG-905 (30 μΜ)): 0.000533 s⁻¹

COc1ccc(C(=O)N(CC(C)(C)CNc2ccc([N+](=O)[O-])c3nonc23)c2cccc(C)n2)c(N2CCC(COc3cccc(C(CC(=O)O)C4CC4)c3)CC2)c1.O=C(O)C(F)(F)F (stereo not shown) [TUG-2597]
Specific BRET (FFA1-Nluc [1]; FFA1-Nluc (Fig 1E), percentage of the maximal signal, [TUG-2597] 550 nM): 49.872% and 58.619% and 50.406% and 58.181% and 46.189%
Kd (FFA1-Nluc [1]; [3]): 380 nM
Specific BRET (540/450) Ratio (FFA1-Nluc [1]; FFA1-Nluc, [TUG-2597] 550 nM): 0.0328 and 0.0282
kOff Nano-BRET Allosterism, FFA1-Nluc (FFA1-Nluc [1]; TUG-2597 (1 μM) in the presence of TUG-905 (30μM), 95% CI in parentheses): 0.24 (0.23-0.25) min-1
kOff Nano-BRET Single Concentration (FFA1-Nluc [1]; [5]): 0.00633 s⁻¹
kOn Nano-BRET Single Concentration (FFA1-Nluc [1]; no pre-treatment, NBD/Nluc (Sup. Fig. 10A)): 23333.33 M⁻¹ s⁻¹
Kd (FFA1-Nluc [1]; no pre-treatment, read-out: Kd Nano-BRET Single Concentration (kinetic)): 270 nM
EMax (% TUG-905) arrestin-3 recruitment (FFA1): 60 ± 6%
pEC50 arrestin-3 recruitment (FFA1): 8.5 ± 0.3
Specific BRET (540/450) (FFA1-Nluc [2]; Sup Fig 3Bii, TUG-2591 0 nM, TUG-2597 + TUG-905): 0.2651 and 0.2434 and 0.2485 and 0.2471 and 0.2191 and 0.2108
Specific BRET (540/450) (FFA1-Nluc [2]; Sup Fig 3Bii, TUG-2591 0 nM, TUG-2597 alone): 0.1932 and 0.1879 and 0.1690 and 0.1361 and 0.1137 and 0.1169
kOff DISCo-BRET NBD/Nluc (FFA1-Nluc [2]; [6]): 0.004 s⁻¹
kOff DISCo-BRET SulfoCy5/NBD (FFA1-Nluc [2]; [6]): 0.0045 s⁻¹
kOff DISCo-BRET NBD/Nluc (FFA1-Nluc [2]; TUG-2591 100 nM + TUG-2597 […], displacing ligands TUG-905 and T360 10 μM each): 0.00367 s⁻¹
kOn DISCo-BRET NBD/Nluc (FFA1-Nluc [2]; [7]): 31666.67 M⁻¹ s⁻¹
kOn DISCo-BRET SulfoCy5/NBD (FFA1-Nluc [2]; [7]): 28333.33 M⁻¹ s⁻¹
Kd (FFA1-Nluc [2]; TUG-2597 after TUG-2591 pre-treatment, read-out: Kd DISCo-BRET NBD/Nluc (kinetic)): 130 nM
Kd (FFA1-Nluc [2]; TUG-2597 after TUG-2591 pre-treatment, read-out: Kd DISCo-BRET SulfoCy5/NBD (kinetic)): 140 nM
kOff DISCo-BRET NBD/Nluc (FFA1-Nluc [2]; [5]): 0.004 s⁻¹
kOff DISCo-BRET SulfoCy5/NBD (FFA1-Nluc [2]; [5]): 0.004 s⁻¹
off rate from DISCo-BRET binding studies (FFA1-Nluc [2]; range depending on which tracer concentration was used (author rebuttal)): 0.18-0.27
kOff DISCo-BRET NBD/Nluc (FFA1-Nluc [2]; [8]): 0.004 s⁻¹
kOff DISCo-BRET SulfoCy5/NBD (FFA1-Nluc [2]; [8]): 0.003 s⁻¹
kOff DISCo-BRET NBD/Nluc (FFA1-Nluc [2]; tracers 1.0 μΜ / 3.16 μΜ, displacing ligands TUG-905 and T360 (30 μM each)): 0.00667 s⁻¹
